Results reported in patent US8524691B2, “Phosphonated rifamycins and uses thereof for the prevention and treatment of bone and joint infections” (The Medicines Company, priority 2008, dated 2013).
≈ marks a conversion by molar mass, not a printed value. Where “and” joins values, the source holds several entries; their conditions need not be identical. Equal values may be shown once. Read-outs that look alike come from different tables or passages of the source.

Legend:
[1] = tested on: S. aureus ATCC 13709^A, Novobiocin and Rifampicin resistant variant; assay: Antibacterial susceptibility (MIC), NCCLS broth microdilution; format: cell-based
Protocol: (§1) Susceptibility of S. aureus strains to the known antibiotics and synthesized compounds was determined by following the guidelines set by NCCLS (M26-A). Compounds were diluted two-fold serially in DMSO and transferred to cation-adjusted Mueller Hinton broth (CAMHB; Becton Dickinson). 50 μL of compounds diluted in CAMHB was mixed with 100 μL of bacteria diluted in CAMHB in 96-well microtiter plates. The final concentration of micro-organisms in the assay was 5×10^5c.f.u. per mL and the final concentration of DMSO in the assay was 1.25%. Assays were set up in duplicate and incubated at 37° C. for 18 h. The lowest concentration of compound that inhibited visible growth was reported as the minimum inhibitory concentration (MIC).

S. aureus ATCC 29213 = assay: as above; format: cell-based
Protocol: as §1

S. aureus ATCC 13709 [2] = assay: microbe, parasite or virus in culture; format: cell-based
Protocol: as §1

S. aureus ATCC 13709 [3] = assay: microbe, parasite or virus in culture; format: cell-based; details: for MIC: Staphylococcus aureus, ATCC13709, 18 h
Protocol: as §1
Susceptibility testing experiments were also carried out in the presence of serum. These experiments were carried out similar to the susceptibility testing with the following modifications. 75 μL of compounds diluted in CAMHB was mixed with 75 μL of bacteria diluted in 100% serum from any given source (commercial pooled mouse serum (MS) and human serum (HS), Equitech-Bio Inc.) or diluted in 8% purified human serum albumin (HSA) (Calbiochem). The final concentration of animal serum in the assay was 50% and the final concentration of purified human serum albumin in the assay was 4%; the concentrations of all other components were identical to those described for susceptibility testing.

[4] = tested on: Novobiocin resistant mutant strain of S. aureus ATCC 13709; assay: Prophylactic efficacy in rat model of S. aureus bone infection; format: in vivo; details: tibia 24 h postinfection; for Measured bacterial titer, parent drug: rifabutin 20 mg/kg, listed as Parent drug
Protocol: To determine the in vivo activity of bisphosphonated prodrugs of Rifamycin derived antibacterials in comparison to their non-bisphosphonated parents, compounds 18, 19, 48a, 59, 66, 89, 95, 102, 110, 142b and 164 and their parent drug rifabutin were used as prophylactic therapeutics in an animal model of infection. Specifically, a spontaneous Novobiocin resistant mutant strain of S. aureus ATCC 13709 (a clinical osteomyelitis isolate), was grown overnight at 37° C. in brain heart infusion broth (BHIB). After 16 h of growth, cells were subcultured into fresh BHIB and incubated for 4 to 5 h at 37° C. The cells were washed twice with phosphate-buffered saline (PBS) and resuspended in BHIB supplemented with 10% (vol./vol.) fetal bovine serum at a density of approximately 10^10 colony forming units (CFU)/ml (based upon turbidimetry). The suspension was aliquoted and a portion was used to check the CFU count. The culture was stored frozen (−80° C.) and was used without subculture. For use as an inoculum the culture was thawed, diluted in PBS and kept in an ice bath until it was used.
Animals were infected as described by O'Reilly et al. (Antimicrobial Agents and Chemotherapy (1992), 36(12): 2693-97) to generate the bone infection. Female CD rats (age, 57 to 70 days; n=5/group; Charles River, St-Constant, Canada) were anaesthetized by isofluorane before and during the surgery. Following complete induction of anesthesia, the rat was placed ventral side up and hair was shaved from the surgical site. The skin over the leg was cleaned and disinfected (proviodine-ethanol 70%). A longitudinal incision below the knee joint was made in the sagital plane. The incision was made over the bone below the “knee joint” (tibia head or condyle) but not completely extending to the ankle. A high speed drill fitted with a 2 mm bulb bit was used to drill a hole into the medullar cavity of the tibia. Rats were injected intra-tibially with 0.05 ml 5% sodium morrhuate (sclerosing agent) and then with 0.05 ml of S. aureus suspension (ca. 2×10^7 CFU/rat). The hole was sealed by applying a small amount of dry dental cement which immediately absorbs fluids and adheres to the site. The wound was closed using 3 metal skin clips. Moxifloxacin (as a positive control) was injected once at 10 mg/kg intravenously 1 h postinfection in saline, while the Rifabutin derived prodrugs (prepared in 0.9% saline) were injected at the dose indicated in Table 3 as a single intravenous bolus at different time points prior to the infection.
Infected rats were sacrificed by CO2 asphyxiation 24 h postinfection to monitor the bacterial CFU count. Infected tibiae were removed, dissected free of soft tissue, and weighed. The bones were ground, 50 mg of charcoal were added and the powder was resuspended in 5 ml 0.9% NaCl, serially diluted and processed for quantitative cultures. Treatment efficacy was measured in terms of Log viable bacteria (Log CFU per gram of bone). […] The limit of detection is 2 Log CFU. Statistical comparisons of viable bacterial counts for the different treated and untreated groups were performed with the Dunnett's multiple-comparison test. Differences were considered significant when the P value was <0.05 when comparing treated infected animals to the untreated infected ones. The doses used, the amount of time separating the treatment from the time of infection and the treatment outcomes are shown in Table 3.

For `CCC(=O)Oc1cc(C)c(OCCCCC(P(=O)(O)O)P(=O)(O)O)c(C)c1CCC(=O)N[C@@H](Cc1ccccc1)C(=O)N(C)CC(=O)O[C@@H]1[C@@H](C)[C@@H](O)[C@@H](C)[C@H](OC(C)=O)[C@H](C)[C@@H](OC)/C=C/O[C@@]2(C)Oc3c(C)c(O)c4c(c3C2=O)C2=NC3(CCN(CC(C)C)CC3)NC2=C(NC(=O)/C(C)=C\C=C\[C@@H]1C)C4=O.N.N` [Compound 138], the “Minimum inhibitory concentration, S. aureus ATCC 13709^A” value [1] was over 128 µg/mL, the “Minimum inhibitory concentration, S. aureus ATCC 29213” value (S. aureus ATCC 29213) was over 128 µg/mL and the “Minimum inhibitory concentration, S. aureus ATCC 13709” value (S. aureus ATCC 13709 [2]) was over 128 µg/mL. The “Antibacterial activity (in words, from Table 1)” value (S. aureus ATCC 13709 [2]; S. aureus MIC) was “near complete loss of activity”, the “Minimum inhibitory concentration, ATCC 13709 + 50% Human Serum” value (S. aureus ATCC 13709 [3]) was over 128 µg/mL and the “Minimum inhibitory concentration, ATCC 13709 + 50% Mouse Serum” value (S. aureus ATCC 13709 [3]) was over 128 µg/mL. For the same compound, the “Minimum inhibitory concentration, ATCC 13709 + 50% Rat Serum” value (S. aureus ATCC 13709 [3]) was over 128 µg/mL.

With `CO[C@H]1/C=C/O[C@@]2(C)Oc3c(C)c(O)c4c(c3C2=O)C2=NC3(CCN(CC(C)C)CC3)NC2=C(NC(=O)/C(C)=C\C=C\[C@H](C)[C@H](OC(=O)CN(C)C(=O)CNC(=O)[C@@H](Cc2ccccc2)NC(=O)CNC(=O)CCC(P(=O)(O)O)P(=O)(O)O)[C@@H](C)[C@@H](O)[C@@H](C)[C@H](OC(C)=O)[C@@H]1C)C4=O.N.N` [Compound 79a] the “Minimum inhibitory concentration, S. aureus ATCC 13709^A” value [1] was over 128 µg/mL, the “Minimum inhibitory concentration, S. aureus ATCC 29213” value (S. aureus ATCC 29213; CAMHB, 37° C., 18 h) was 16 µg/mL and the “Minimum inhibitory concentration, S. aureus ATCC 13709” value (S. aureus ATCC 13709 [2]; CAMHB, 37° C., 18 h) was 16 µg/mL. The “Minimum inhibitory concentration, ATCC 13709 + 50% Human Serum” value (S. aureus ATCC 13709 [3]) was over 128 µg/mL, the “Minimum inhibitory concentration, ATCC 13709 + 50% Mouse Serum” value (S. aureus ATCC 13709 [3]) was over 128 µg/mL and the “Minimum inhibitory concentration, ATCC 13709 + 50% Rat Serum” value (S. aureus ATCC 13709 [3]; 50% Rat Serum) was 64 µg/mL.

In the case of `COc1c(N2C[C@@H]3CCCN[C@@H]3C2)c(F)cc2c(=O)c(C(=O)O)cn(C3CC3)c12` [Moxifloxacin, reference compound], the “Measured bacterial titer, positive control” value ([4]; Moxifloxacin 10 mg/kg intravenously once 1 h postinfection, listed as Positive control) is reported as 2.62 ± 0.37 Log CFU/g of bone and 3.22 ± 0.65 Log CFU/g of bone and 2.27 ± 0.21 Log CFU/g of bone and 2.63 ± 0.65 Log CFU/g of bone and 2.06 ± 0.10 Log CFU/g of bone and 2.95 ± 1.07 Log CFU/g of bone and 2.2 ± 0.28 Log CFU/g of bone and 3.01 ± 0.74 Log CFU/g of bone.

`CO[C@H]1/C=C/O[C@@]2(C)Oc3c(C)c(O)c4c(c3C2=O)C2=NC3(CCN(CC(C)C)CC3)NC2=C(NC(=O)/C(C)=C\C=C\[C@H](C)[C@H](O)[C@@H](C)[C@@H](O)[C@@H](C)[C@H](OC(C)=O)[C@@H]1C)C4=O` [Rifabutin, reference compound] gave an MIC (S. aureus ATCC 29213; Staphylococcus aureus, ATCC29213, CAMHB, 37° C., 18 h, read-out: Minimum inhibitory concentration, S. aureus ATCC 29213) of 0.0156 µg/mL (≈ 0.0184 µM), an MIC (S. aureus ATCC 13709 [2]; Staphylococcus aureus, ATCC13709, CAMHB, 37° C., 18 h, read-out: Minimum inhibitory concentration, S. aureus ATCC 13709) of 0.0312 µg/mL (≈ 0.0369 µM) and an MIC (S. aureus ATCC 13709 [3]; read-out: Minimum inhibitory concentration, ATCC 13709 + 50% Human Serum) of 0.0312 µg/mL. The MIC (S. aureus ATCC 13709 [3]; read-out: Minimum inhibitory concentration, ATCC 13709 + 50% Mouse Serum) was 0.0625 µg/mL, the MIC (S. aureus ATCC 13709 [3]; read-out: Minimum inhibitory concentration, ATCC 13709 + 50% Rat Serum) was 0.0312 µg/mL and the “Measured bacterial titer, parent drug” value ([4]; 1 day prior to infection) was 2.03 ± 0.07 Log CFU/g of bone and 2.09 ± 0.06 Log CFU/g of bone and 2.03 ± 0.09 Log CFU/g of bone and 2.07 ± 0.09 Log CFU/g of bone and 2.35 ± 1.12 Log CFU/g of bone. The “Measured bacterial titer, parent drug” value ([4]; 5 days prior to infection) was 2.75 ± 0.94 Log CFU/g of bone and 4.27 ± 1.91 Log CFU/g of bone and 4.34 ± 0.79 Log CFU/g of bone and 4.71 ± 1.05 Log CFU/g of bone.
